The source of these data is patent publication EP0029082B1, “1-Benzylated ergometrine derivatives, process for their preparation and pharmaceutical compositions containing them” (VEB Arzneimittelwerk Dresden, priority 1979, dated 1981).

Each structure is given as a SMILES string.

The test system of this experiment is Serotoninödem an der Ratte. The experiment is described as follows: Antiserotonin effect on serotonin-induced oedema in the rat (set-up according to Winter, Risley and Nuss). It is filed as in vivo. The conditions noted are these: dose 0,005 mg/kg i. p., mean inhibition versus control group, values statistically significant for A and B; for prozentuale Hemmung nach Serotoningabe (%) nach 30 min: 30 min after serotonin; for prozentuale Hemmung nach Serotoningabe (%) nach 90 min: 90 min after serotonin; for prozentuale Hemmung nach Serotoningabe (%) nach 150 min: 150 min after serotonin; for prozentuale Hemmung nach Serotoningabe (%) nach 210 min: 210 min after serotonin; for prozentuale Hemmung nach Serotoningabe (%) nach 270 min: 270 min after serotonin.

As to `C[C@@H](CO)NC(=O)[C@@H]1C=C2c3cccc4c3c(cn4Cc3cccc(F)c3)C[C@H]2N(C)C1` [Verb. A, 1-(3'-Fluorbenzyl)-ergometrindimaleinat], the “prozentuale Hemmung nach Serotoningabe (%) nach 30 min” value was 44%, the “prozentuale Hemmung nach Serotoningabe (%) nach 90 min” value is recorded as 50%, the “prozentuale Hemmung nach Serotoningabe (%) nach 150 min” value came to 36% and the “prozentuale Hemmung nach Serotoningabe (%) nach 210 min” value turned out to be 55%. The “prozentuale Hemmung nach Serotoningabe (%) nach 270 min” value is given as 56%.

Turning to `C[C@@H](CO)NC(=O)[C@@H]1C=C2c3cccc4c3c(cn4Cc3ccc(Cl)cc3)C[C@H]2N(C)C1` [Verb. B, 1-(4'-Chlorbenzyl)-ergometrindimaleinat], the “prozentuale Hemmung nach Serotoningabe (%) nach 30 min” value came out at 44%, the “prozentuale Hemmung nach Serotoningabe (%) nach 90 min” value was determined as 45%, the “prozentuale Hemmung nach Serotoningabe (%) nach 150 min” value is reported as 46% and the “prozentuale Hemmung nach Serotoningabe (%) nach 210 min” value amounted to 61%. The “prozentuale Hemmung nach Serotoningabe (%) nach 270 min” value was 58%.

As for `CC[C@@H](CO)NC(=O)[C@@H]1C=C2c3cccc4c3c(cn4C)C[C@H]2N(C)C1` [Methysergid, reference compound], the “prozentuale Hemmung nach Serotoningabe (%) nach 30 min” value turned out to be 68%, the “prozentuale Hemmung nach Serotoningabe (%) nach 90 min” value was 60%, the “prozentuale Hemmung nach Serotoningabe (%) nach 150 min” value came out at 36% and the “prozentuale Hemmung nach Serotoningabe (%) nach 210 min” value is 34%. The “prozentuale Hemmung nach Serotoningabe (%) nach 270 min” value was 46%.
